Drawing on patent publication US20250069697A1, “AN IMPROVED METHOD TO IDENTIFY NUCLEIC ACID SEQUENCES WITHIN A SET OF SEQUENCES OBTAINED BY A SEQUENCER AND A SYSTEM” (priority 2022, published 2025), this text covers Result for five molecules.

Holding throughout (type): cell-based
One assay relates to Staphylococcus aureus. The assay can be described thus: Growth of the isolate in antibiotic mediums, sample 2. As to conditions: microorganism isolated in sample 2 (Staphylococcus aureus); grown in antibiotic medium. The source says:
(§1) Each microorganism was growth in at least two antibiotic mediums, in which the improved method predicted resistance, and at least two antibiotic mediums in which the improved method predicted susceptibility, in order to corroborate the obtained results.

In the next assay the test system is Enterococcus faecalis. Nature of the assay: Growth of the isolate in antibiotic mediums, sample 3. Conditions: microorganism isolated in sample 3 (Enterococcus faecalis); grown in antibiotic medium.
From the text: as §1

A further assay deals with Klebsiella pneumoniae. Nature of the assay: Growth of the isolate in antibiotic mediums, sample 1. As to conditions: microorganism isolated in sample 1 (Klebsiella pneumoniae); grown in antibiotic medium.
From the text: as §1

For a further assay, the system named is Escherichia coli. Nature of the assay: Growth of the isolate in antibiotic mediums, sample 5. Conditions: microorganism isolated in sample 5 (Escherichia coli); grown in antibiotic medium.
From the text: as §1

Assay [1] has as its system Staphylococcus epidermidis. The assay can be described thus: Growth of the isolate in antibiotic mediums, sample 4. Conditions: microorganism isolated in sample 4 (Staphylococcus epidermidis); grown in antibiotic medium.
From the text: as §1

In the case of `NCC[C@H](O)C(=O)N[C@@H]1C[C@H](N)[C@@H](O[C@H]2O[C@H](CN)[C@@H](O)[C@H](O)[C@H]2O)[C@H](O)[C@H]1O[C@H]1O[C@H](CO)[C@@H](O)[C@H](N)[C@H]1O` [Amikacin], the Result entry (with Staphylococcus aureus; in the assay on Enterococcus faecalis; with Klebsiella pneumoniae; in the assay on Escherichia coli; in assay [1]) was “Not resistant” in each case.
In the case of `CO/N=C(\C(=O)N[C@@H]1C(=O)N2C(C(=O)O)=C(CSc3nc(=O)c(=O)[nH]n3C)CS[C@H]12)c1csc(N)n1` [Ceftriaxone], the Result result (in the assay on Klebsiella pneumoniae; in the assay with Escherichia coli; in assay [1]) was “Resistant” throughout.
For `O=C(O)c1cn(C2CC2)c2cc(N3CCNCC3)c(F)cc2c1=O` [Ciprofloxacin], the Result result in the assay with Staphylococcus aureus was “Resistant”; in the assay with Enterococcus faecalis it was “Not resistant”; in the assay with Klebsiella pneumoniae it was “Resistant”; in the assay with Escherichia coli it was “Resistant”; in assay [1], “Resistant”.
Consider `COc1cccc(OC)c1C(=O)N[C@@H]1C(=O)N2[C@@H]1SC(C)(C)[C@@H]2C(=O)O` [Methicillin], for which the Result entry (in the assay with Staphylococcus aureus; in the assay on Klebsiella pneumoniae; with Escherichia coli; in assay [1]) was “Not resistant” in each case.
As for `CC[C@H]1OC(=O)[C@H](C)[C@@H](O[C@H]2C[C@@](C)(OC)[C@@H](O)[C@H](C)O2)[C@H](C)[C@@H](O[C@@H]2O[C@H](C)C[C@H](N(C)C)[C@H]2O)[C@](C)(O)C[C@@H](C)CN(C)[C@H](C)[C@@H](O)[C@]1(C)O` [azithromycin], in the assay on Staphylococcus aureus, the Result entry was “Resistant”.
